Source: patent US20080280833A1, “Therapeutic Peptides Derived from Urokinase Plasminogen Activator Receptor” (priority 2005, published 2008)

Experiments:
[1] = test system: rat smooth muscle cells (RSMC); assay: Chemotaxis assay, rat smooth muscle cells; type: cell-based; conditions: for inhibition of D2A-induced RSMC migration: attractant D2A; for inhibition of VN-induced RSMC migration: attractant VN
Experimental: (§1) Chemotaxis assay was performed as described (Degryse et al., 1999, 2001a, 2001b) with modified Boyden chambers. Filters (5 μm pore size, Neuro Probe, Gaithersburg, Md.) were treated with collagen I (100 μg/ml) and fibronectin (10 μg/ml, Roche).≈40-50,000 cells in serum-free DMEM were added to the upper well and the chemoattractants tested added to the lower well. When present, antibodies, or inhibitors were added in both wells. After overnight migration at 37° C., cells remaining on the upper surface of filters were scraped off and filters were fixed in methanol and stained in a solution of 10% (w/v) crystal violet in 20% (v/v) methanol. The experiments were performed at least twice in triplicate and the results, expressed as fold over control, are the mean ±SD of the number of cells counted in ten high power fields per filter. Random cell migration, i.e. migration in the absence of chemoattractant, was given the arbitrary value of 100%.

[2] = test system: Rat Smooth Muscle Cells and HT1080 Human Fibrosarcoma Cells; assay: Boyden chamber assays, pleiotropic inhibition of chemotaxis; type: cell-based
From the text: In Boyden chamber assays, D2A-Ala and GAAG inhibit not only VN-dependent and uPA-dependent chemotaxis (as reported above), but also EGF— and UTP-dependent chemotaxis. The effect is dose-dependent. Notice that the EGF-dependent and the UTP-dependent chemotaxis work through receptors (EGF-receptor and P2Y2 receptor, respectively), that are different among themselves and are different from those employed by uPA (uPAR) and VN (αvβ3). We conclude that these two inhibitors are general inhibitors of chemotaxis.

[3] = test system: human HT1080 fibrosarcoma cells; assay: Matrigel invasion assay; type: cell-based; conditions: for inhibition of EGF-dependent invasion / inhibition of insulin-dependent invasion: HT1080, 100 pM; for inhibition of VN-induced invasiveness / inhibition of uPA-induced invasiveness: HT1080, at about the same concentration (around 1 pM); for inhibition of FN-induced invasion: HT1080, at the same concentration; for stimulation of Matrigel invasiveness of HT1080 cells: substance alone, 24 hours at 37° C.; for concentration of peak stimulation of Matrigel invasiveness: HT1080, dose-dependent
[4] = test system: KG-1 cells; assay: Chemotaxis assay of non adherent cells, Boyden micro-chamber; type: cell-based, human; conditions: for chemotaxis of KG-1 cells: peptide as chemoattractant, 1 hour at 37° C.
Experimental: Chemotaxis assay of non adherent cells was performed as described (Degryse et al., 2001; FEBS lett. 505: 249-254) using modified Boyden micro-chamber with the exception that the filter was not treated. 50,000 cells were added in the top well in serum-free RPMI medium and allowed to migrate for 1 hour at 37° C. The molecules to be tested as chemoattractant were diluted in serum-free RPMI medium and added in the lower well of the Boyden chamber. Experiments were performed in triplicate. Results are the mean ±SD of the number of cells counted in five high power fields. Migration in the absence of chemoattractant is referred to as 100%.

[5] = test system: HEK-293-uPAR cells; assay: Chemotaxis assay, HEK-293-uPAR cells; type: cell-based, human; conditions: HEK-293-uPAR; for cell migration in the presence of VN: VN 1 μg/ml + peptide 1 pM; for cell migration: peptide alone 1 pM
Experimental: as §1

[6] = test system: Stat1; assay: Immunofluorescence microscopy, Stat1 distribution; type: cell-based, rat; conditions: RSMC; for Stat1 activation and translocation into the nucleus: 30 minutes at 37° C., peptide 1 pM or VN 1 μg/ml
Experimental: (§2) As previously described (Degryse et al., 1999; 2004) 15,000-25,000 cells (20-40% confluence), were seeded on glass coverslips in 2 cm^2 well, cultured for 24 hours in DMEM plus 10% FCS, washed with PBS and cultured for another 24 hours without FCS. After stimulation, RSMC were fixed for 20 min at RT with 3% paraformaldehyde, 2% sucrose in PBS pH 7.5, washed 3 times with PBS-BSA 0.2%, permeabilized with 20 mM hepes pH 7.4, 300 mM saccharose, 50 mM NaCl, 3 mM MgCl2, 0.5% (v/v) Triton X-100 for 3 min at 4° C., and washed 3 times with PBS-BSA 0.2%. RSMC were incubated in PBS-BSA 2% for 15 min at 37° C., then with anti-Stat1 primary antibodies for 30 min at 37° C., washed 3 times with PBS-BSA 0.2%, and further incubated with PBS-BSA 2% for 15 min at 37° C. Cells were stained with the secondary TRITC-antibody and with FITC-phalloidin for visualization of filamentous actin, for 30 min at 37° C. DAPI (4′,6-diamidino-2-phenylindole, Roche) was used to label the nucleus. Finally, after 3 washes with PBS-BSA 0.2%, one with distilled water, coverslips were mounted with 20% (w/v) Mowiol. Fluorescence Photographs were taken with a Zeiss Axiophot microscope
To quantify the activation of Stat1, random pictures were taken and nuclei positively stained for Stat1 were counted and expressed in percent.

[7] = test system: human smooth muscle cells from the aorta (AoSMC); assay: Chemotaxis assay, human aortic smooth muscle cells; type: cell-based
Experimental: as §1

[8] = target: T1, uPAR-αvβ3 complexes (Homo sapiens, UniProt P05106+P06756); assay: Pull-down assay, 125I-suPAR with purified αvβ3 integrin; type: binding
T1 construct: purchased Chemicon (integrins); American Diagnostica (uPA)
Experimental: (§3) Soluble uPAR (suPAR) was radioiodinated (as for VN, see above) at a specific activity of 1.5×10^5 cpm/ng. A mix composed of 2 μg of either purified αvβ3 or α5β1 integrin, and […] of ^125I-suPAR was incubated for 4 hours at 4° C. in the absence (control) or in the presence of 4 μg of uPA with or without 5 μg of either D2A or D2A-Ala peptide in binding buffer, (RPMI plus 0.02% BSA, 10 mM HEPES pH 7.4, total volume 300 μl). Complexes were immunoprecipitated with 3 μg of anti-αvβ3 (LM609) or anti-α5β1 monoclonal antibody, and 60 μl of protein G-agarose beads (Amersham Biosciences), Beads were washed three times in binding buffer, extracted in reducing sample buffer, and proteins were fractionated by SDS-PAGE. Gels were analyzed by autoradiography and densitometry. Results are presented as percentage of relative density units normalized to uPA alone.

[9] = test system: HEK-293 cells; assay: Chemotaxis assay, HEK-293 cells; type: cell-based, human; conditions: for cell migration in the presence of VN: HEK-293, VN 1 μg/ml + peptide 1 pM; for cell migration: HEK-293, peptide alone 1 pM
Experimental: as §1

[10] = test system: RSMC; assay: Immunofluorescence microscopy, actin cytoskeleton and cell morphology; type: cell-based, rat; conditions: 30 minutes at 37° C., peptide 1 pM or VN 1 μg/ml
Experimental: as §2

[11] = test system: human smooth muscle cells from the coronary artery (CASMC); assay: Chemotaxis assay, human coronary artery smooth muscle cells; type: cell-based
Experimental: as §1

[12] = target: T2, uPAR-α5β1 complexes (Homo sapiens, UniProt P05556+P08648); assay: Pull-down assay, 125I-suPAR with purified α5β1 integrin; type: binding; conditions: in the presence of uPA
T2 construct: purchased Chemicon (integrins); American Diagnostica (uPA)
Experimental: as §3

[13] = test system: LB6-D1HD3 cells; assay: Chemotaxis assay, LB6-D1HD3 cells (uPAR lacking domain 2); type: cell-based, mouse
Experimental: as §1

T1 sequence (P06756 31-889 limits assumed): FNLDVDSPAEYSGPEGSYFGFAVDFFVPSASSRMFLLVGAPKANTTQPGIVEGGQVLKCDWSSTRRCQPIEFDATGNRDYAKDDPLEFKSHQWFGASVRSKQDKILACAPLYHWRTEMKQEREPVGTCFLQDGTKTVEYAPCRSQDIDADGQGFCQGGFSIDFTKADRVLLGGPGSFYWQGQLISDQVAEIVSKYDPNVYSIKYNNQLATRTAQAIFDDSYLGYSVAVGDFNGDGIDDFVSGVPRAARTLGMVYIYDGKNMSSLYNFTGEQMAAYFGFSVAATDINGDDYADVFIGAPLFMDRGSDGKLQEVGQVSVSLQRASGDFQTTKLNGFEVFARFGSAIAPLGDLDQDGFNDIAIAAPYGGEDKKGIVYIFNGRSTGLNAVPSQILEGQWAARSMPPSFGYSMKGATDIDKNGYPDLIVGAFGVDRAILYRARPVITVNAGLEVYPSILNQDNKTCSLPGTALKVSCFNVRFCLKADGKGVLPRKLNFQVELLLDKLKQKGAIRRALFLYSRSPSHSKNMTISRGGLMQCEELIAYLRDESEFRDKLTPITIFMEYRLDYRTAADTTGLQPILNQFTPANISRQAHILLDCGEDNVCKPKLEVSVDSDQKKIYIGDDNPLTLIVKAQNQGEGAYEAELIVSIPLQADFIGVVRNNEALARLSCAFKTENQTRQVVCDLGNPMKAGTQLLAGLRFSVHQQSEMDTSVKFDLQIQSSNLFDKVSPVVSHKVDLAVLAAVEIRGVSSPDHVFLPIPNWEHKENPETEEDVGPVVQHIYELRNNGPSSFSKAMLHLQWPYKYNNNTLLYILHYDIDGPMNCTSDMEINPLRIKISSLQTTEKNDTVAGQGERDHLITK
T1 sequence (P06756 891-1048 limits assumed): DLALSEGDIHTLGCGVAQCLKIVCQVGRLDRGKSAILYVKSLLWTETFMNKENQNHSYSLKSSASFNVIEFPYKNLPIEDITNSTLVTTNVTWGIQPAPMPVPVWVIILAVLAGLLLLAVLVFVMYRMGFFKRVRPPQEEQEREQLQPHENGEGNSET
T1 sequence (P05106 27-788): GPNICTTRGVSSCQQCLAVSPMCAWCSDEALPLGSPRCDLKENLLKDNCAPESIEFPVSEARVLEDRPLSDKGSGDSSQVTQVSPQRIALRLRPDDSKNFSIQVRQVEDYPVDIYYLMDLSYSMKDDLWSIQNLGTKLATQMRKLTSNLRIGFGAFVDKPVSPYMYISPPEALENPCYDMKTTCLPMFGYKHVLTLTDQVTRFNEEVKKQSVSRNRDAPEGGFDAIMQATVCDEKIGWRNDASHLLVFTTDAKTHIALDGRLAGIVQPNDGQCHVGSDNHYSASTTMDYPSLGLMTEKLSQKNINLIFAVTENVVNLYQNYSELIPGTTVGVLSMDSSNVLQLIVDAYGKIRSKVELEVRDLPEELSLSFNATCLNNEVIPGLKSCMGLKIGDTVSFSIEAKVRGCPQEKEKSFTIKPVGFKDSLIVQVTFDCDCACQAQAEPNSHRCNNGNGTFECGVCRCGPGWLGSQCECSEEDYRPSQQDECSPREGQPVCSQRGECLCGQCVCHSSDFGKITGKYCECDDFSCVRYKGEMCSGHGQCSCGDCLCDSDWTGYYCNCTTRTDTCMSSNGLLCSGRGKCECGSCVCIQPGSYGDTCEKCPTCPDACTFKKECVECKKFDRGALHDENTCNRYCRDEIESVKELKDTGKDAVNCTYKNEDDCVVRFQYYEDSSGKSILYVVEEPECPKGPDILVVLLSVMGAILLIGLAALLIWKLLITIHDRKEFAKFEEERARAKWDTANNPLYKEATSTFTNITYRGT
T2 sequence (P08648 42-894 limits assumed): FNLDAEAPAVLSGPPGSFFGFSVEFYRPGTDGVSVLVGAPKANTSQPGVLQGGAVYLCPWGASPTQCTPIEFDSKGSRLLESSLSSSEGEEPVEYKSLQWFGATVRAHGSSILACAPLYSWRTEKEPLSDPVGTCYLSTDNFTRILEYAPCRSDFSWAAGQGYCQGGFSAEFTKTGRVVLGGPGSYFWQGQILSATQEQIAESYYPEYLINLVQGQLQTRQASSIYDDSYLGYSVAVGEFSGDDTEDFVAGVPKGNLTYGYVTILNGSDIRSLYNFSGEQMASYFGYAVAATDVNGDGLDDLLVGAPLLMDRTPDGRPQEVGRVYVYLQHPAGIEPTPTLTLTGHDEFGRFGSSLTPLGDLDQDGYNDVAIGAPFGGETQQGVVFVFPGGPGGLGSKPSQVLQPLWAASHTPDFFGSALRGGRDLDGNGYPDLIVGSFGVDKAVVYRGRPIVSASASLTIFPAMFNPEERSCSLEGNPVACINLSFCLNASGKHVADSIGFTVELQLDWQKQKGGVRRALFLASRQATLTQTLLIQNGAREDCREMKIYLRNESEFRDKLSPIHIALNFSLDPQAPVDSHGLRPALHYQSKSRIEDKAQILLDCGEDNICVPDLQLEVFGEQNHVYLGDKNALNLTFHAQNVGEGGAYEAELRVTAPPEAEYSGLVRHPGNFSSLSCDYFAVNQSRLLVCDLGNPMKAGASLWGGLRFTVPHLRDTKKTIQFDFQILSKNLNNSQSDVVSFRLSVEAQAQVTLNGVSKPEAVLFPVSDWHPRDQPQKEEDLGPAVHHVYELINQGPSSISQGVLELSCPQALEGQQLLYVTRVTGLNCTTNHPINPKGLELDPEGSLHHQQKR
T2 sequence (P08648 895-1049 limits assumed): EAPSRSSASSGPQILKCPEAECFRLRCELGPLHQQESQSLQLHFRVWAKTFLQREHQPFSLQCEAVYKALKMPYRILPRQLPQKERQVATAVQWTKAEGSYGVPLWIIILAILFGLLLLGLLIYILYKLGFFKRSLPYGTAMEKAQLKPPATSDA
T2 sequence (P05556 21-798): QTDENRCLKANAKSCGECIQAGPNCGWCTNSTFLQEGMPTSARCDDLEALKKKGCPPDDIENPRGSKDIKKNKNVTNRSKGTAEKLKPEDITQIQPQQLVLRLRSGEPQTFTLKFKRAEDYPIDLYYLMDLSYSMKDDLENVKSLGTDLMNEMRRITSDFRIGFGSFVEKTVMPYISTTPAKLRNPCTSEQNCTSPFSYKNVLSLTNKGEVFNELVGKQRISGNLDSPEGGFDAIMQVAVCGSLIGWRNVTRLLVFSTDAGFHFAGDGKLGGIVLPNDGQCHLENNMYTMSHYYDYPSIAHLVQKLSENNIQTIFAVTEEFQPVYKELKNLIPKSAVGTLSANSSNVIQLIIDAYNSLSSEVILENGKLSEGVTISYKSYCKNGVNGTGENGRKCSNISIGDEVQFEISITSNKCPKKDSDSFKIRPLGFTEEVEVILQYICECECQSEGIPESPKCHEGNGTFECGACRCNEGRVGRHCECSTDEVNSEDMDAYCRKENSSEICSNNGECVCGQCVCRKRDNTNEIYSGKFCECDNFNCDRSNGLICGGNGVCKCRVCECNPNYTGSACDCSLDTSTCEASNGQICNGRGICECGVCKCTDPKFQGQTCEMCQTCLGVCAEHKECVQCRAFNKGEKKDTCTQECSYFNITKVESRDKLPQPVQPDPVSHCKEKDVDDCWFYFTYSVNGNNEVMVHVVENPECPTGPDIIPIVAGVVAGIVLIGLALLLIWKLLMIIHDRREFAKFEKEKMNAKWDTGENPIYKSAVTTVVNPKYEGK

## N#C/C(=C/c1ccc(O)c(O)c1)C(=O)NCc1ccccc1 [AG-490, reference compound]
[1]; RSMC
  inhibition of D2A-induced RSMC migration: inhibited
  inhibition of VN-induced RSMC migration: inhibited

## COc1cccc(-c2cc(=O)c3ccccc3o2)c1N [PD98059, reference compound]
[1]; RSMC
  inhibition of D2A-induced RSMC migration: Neither VN- nor D2A-induced cell migration were blocked
  inhibition of VN-induced RSMC migration: Neither VN- nor D2A-induced cell migration were blocked

## GAAG (Amino acid sequence motif) [shorter version of D2A-Ala]
[2]
  inhibition of VN-dependent chemotaxis: inhibit
  inhibition of uPA-dependent chemotaxis: inhibit
  inhibition of EGF-dependent chemotaxis: inhibit
  inhibition of UTP-dependent chemotaxis: inhibit
[3]
  inhibition of EGF-dependent invasion: inhibit
  inhibition of insulin-dependent invasion: inhibit
  inhibition of VN-induced invasiveness: inhibit
  inhibition of uPA-induced invasiveness: inhibit
  inhibition of FN-induced invasion: inhibit
  stimulation of Matrigel invasiveness of HT1080 cells: have no effects
[4]
  inhibition of vitronectin (VN)-induced chemotaxis of KG-1 cells: inhibited

## GEEG
[3]
  concentration of peak stimulation of Matrigel invasiveness: around 1 pM
  stimulation of Matrigel invasiveness of HT1080 cells: stimulate

## IQEGAAGRPKDDR [D2A-Ala, D2A with two glutamic acids changed into two alanines]
[2]
  inhibition of VN-dependent chemotaxis: inhibit
  inhibition of uPA-dependent chemotaxis: inhibit
  inhibition of EGF-dependent chemotaxis: inhibit
  inhibition of UTP-dependent chemotaxis: inhibit
[5]
  cell migration in the presence of VN: 108.18 ± 13.90 % of control
  cell migration: 108.72 ± 17.37 % of control
[6]
  Stat1 activation and translocation into the nucleus: failed to activate Stat1
[6]; peptide 1 pM with VN 1 μg/ml
  inhibition of VN-induced translocation of Stat1: inhibited
[1]; RSMC
  inhibition of FN-induced migration: inhibited
  inhibition of LN-induced migration: inhibited
  stimulation of RSMC migration (chemotactic activity): failed to stimulate cell migration
  inhibition of VN-induced RSMC migration: completely abrogated
[1]; VN-stimulated RSMC
  concentration at which an effect on VN-induced cell migration is already visible: 10 fM
  concentration giving complete inhibition of VN-induced cell migration: 1 pM
[3]
  inhibition of EGF-dependent invasion: inhibit
  inhibition of insulin-dependent invasion: inhibit
  inhibition of VN-induced invasiveness: inhibit
  inhibition of uPA-induced invasiveness: inhibit
  inhibition of FN-induced invasion: inhibit
  stimulation of Matrigel invasiveness of HT1080 cells: have no effects
[7]
  inhibition of VN-induced migration: totally inhibited
[4]
  inhibition of vitronectin (VN)-induced chemotaxis of KG-1 cells: inhibited
[8]; in the presence of uPA
  effect on uPAR-αvβ3 co-immunoprecipitation: prevented
[9]
  cell migration in the presence of VN: 94.50 ± 19.58 % of control
  cell migration: 110.19 ± 26.63 % of control
[10]
  cell morphology and actin cytoskeleton organization: did not promote the change of morphology and reorganization of actin cytoskeleton
[11]
  inhibition of VN-induced migration: totally inhibited

## IQEGEEGRPKDDR [D2A]
[5]
  cell migration in the presence of VN: 400.88 ± 17.41 % of control
  cell migration: 325.48 ± 14.42 % of control
[6]
  Stat1 activation and translocation into the nucleus: induced its translocation into the nucleus
[1]; RSMC
  stimulation of RSMC migration (chemotactic activity): equally active in stimulating migration
[1]; RSMC, D2A 1 pM combined with VN 1 μg/ml
  additivity of chemotactic effects with VN: did not further increase cell migration
[3]
  concentration of peak stimulation of Matrigel invasiveness: around 1 pM
  stimulation of Matrigel invasiveness of HT1080 cells: stimulate
[4]
  chemotaxis of KG-1 cells: stimulated migration
[8]; uPA plus peptide, αvβ3
  reduction of coimmunoprecipitated suPAR compared to uPA alone: approximately 50%
[12]
  effect on uPA-induced co-immunoprecipitation of suPAR and α5β1: can also prevent
[9]
  cell migration in the presence of VN: 190.23 ± 35.24 % of control
  cell migration: 106.98 ± 11.78 % of control
[13]; LB6-D1HD3 cells, at 10 pM, peptide per se
  maximal increase of migration: 2 fold
[13]; with VN 1 μg/ml
  effect on response to VN of non-responsive LB6-D1HD3 cells: restored the response to VN
[10]
  cell morphology and actin cytoskeleton organization: a complete change of morphology and cytoskeleton organization occurred

## RDDKPRGEEGEQI [D2B]
[1]; RSMC
  stimulation of RSMC migration (chemotactic activity): equally active in stimulating migration
[4]
  chemotaxis of KG-1 cells: also promotes the migration
